Measurements taken from patent US20140018435A1, “Transdermal Delivery of Therapeutic Agents Using Poly (Amidoamine) Dendrimers” (UNIVERSITY OF ILLINOIS CHICAGO, priority 2012, published 2014).
Read-outs that look alike come from different tables or passages of the source.

Tests used:
[1] = tested on: breast cancer cell growth; details: tissue culture; cited from earlier work
[2] = gel, cited from earlier work
[3] = tested on: ER positive invasive breast cancer; details: gel, 0.5 or 1 mg per breast per day; cited from earlier work
[4] = 24 hours dendrimer pre-treatment, then 5-FU in isopropyl myristate for 48 hrs; cited from earlier work
[5] = after 24 hours of co-treatment; cited from earlier work
[6] = at pH 74; cited from earlier work
[7] = Franz diffusion cell skin permeation/retention, porcine skin; format: in vitro ADME; details: detection limit 9 ng/mL
[8] = taken orally for five years; cited from earlier work

Question: For 4-hydroxytamoxifen [4-OHT], which “potency in suppressing breast cancer cell growth relative to TAM” value [1] is on record?
Answer: The value was “two-log greater potency”.

Question: What about the “plasma level as fraction of those seen after 20 mg of oral TAM” value ([2]; 0.5 mg per breast per day) of the same compound?
Answer: The value was “approximately 1/30”.

Question: And the “plasma levels of 4-OHT” value ([2]; 0.5 mg per breast per day)?
Answer: Its value is 0.05 ng/mL.

Question: What about the “plasma level as fraction of those seen after 20 mg of oral TAM” value ([2]; 1 mg per breast per day) of the same compound?
Answer: The value was 1/12.

Question: What about the “plasma levels of 4-OHT” value ([2]; 1 mg per breast per day) of the same compound?
Answer: The value was 0.13 ng/mL.

Question: What about the “reduction of Ki-67 labeling” value [3] of the same compound?
Answer: The value was “reduced the Ki-67 labeling to a similar degree as oral TAM”.

Question: For `O=c1[nH]cc(F)c(=O)[nH]1` [5-FU, 5-fluorouracil], which “fold enhancement in permeability coefficient” value [4] is on record?
Answer: Its value is “Up to 4 fold”.

Question: Which “increase of accumulative permeated amount by complexing with PAMAM dendrimers, as compared to the free drug” value [5] does the source give for `O=C(O)c1cc(-c2ccc(F)cc2F)ccc1O` [Diflunisal] here?
Answer: The value was 3.2 times.

Question: With `CC(C(=O)O)c1cccc(C(=O)c2ccccc2)c1` (stereo not drawn) [Ketoprofen] as the compound, how does the “increase of accumulative permeated amount by complexing with PAMAM dendrimers, as compared to the free drug” value [5] read?
Answer: Its value is 3.4 times.

Question: Which reported partition coefficient [6] does the source give for `CCCCCCCC/C=C\CCCCCCCC(=O)O` [OA, oleic acid] here?
Answer: The reported partition coefficient was 7.3.

Question: With `CC/C(=C(\c1ccc(O)cc1)c1ccc(OCCNC)cc1)c1ccccc1` [endoxifen] as the compound, how does the “endoxifen collected from the receiver solution (RP-HPLC)” value [7] read?
Answer: Its value is under 9 ng/mL.

Question: For `CC/C(=C(\c1ccccc1)c1ccc(OCCN(C)C)cc1)c1ccccc1` [tamoxifen], which “reduction of breast cancer risk” value [8] is on record?
Answer: Its value is “about 50%”.
